Measurements taken from ChEMBL document CHEMBL6103573, “Discovery of novel thienopyridine indole derivatives as inhibitors of tubulin polymerization targeting the colchicine-binding site with potent anticancer activities” (Eur J Med Chem, 2025).
Calls of active or inactive are those of the source. The rule behind the calls is not given here.

Experiments:
MGC-803 [1] = test: Antiproliferative activity against human MGC-803 cells assessed as inhibition of cell proliferation incubated for 48 hrs by MTT assay; assay type: functional, cell-based; conditions: MGC-803, 48 h
HGC-27 [2] = test: Antiproliferative activity against human HGC-27 cells assessed as inhibition of cell proliferation incubated for 48 hrs by MTT assay; assay type: functional, cell-based; conditions: HGC-27, 48 h
MCF7 = test: Antiproliferative activity against human MCF7 cells assessed as inhibition of cell proliferation incubated for 48 hrs by MTT assay; assay type: functional, cell-based; conditions: MCF7, 48 h
NCI-H1975 = test: Antiproliferative activity against human NCI-H1975 cells assessed as inhibition of cell proliferation incubated for 48 hrs by MTT assay; assay type: functional, cell-based; conditions: NCI-H1975, 48 h
[3] = Cytotoxicity against human GES1 cells assessed as inhibition of cell proliferation incubated for 48 hrs by MTT assay; assay type: toxicity, cell-based
MGC-803 [4] = test: Antiproliferative activity against human MGC-803 cells assessed as cell viability at 1 to 2 nmol/L incubated for 48 hrs by MTT assay (reference value: 92 %); assay type: functional; conditions: dose 1-2 nmol/L, at 1 to 2 nM
MGC-803 [5] = test: Antiproliferative activity against human MGC-803 cells assessed as survival rate at 2 nmol/L measured after 48 hrs by MTT assay relative to control; assay type: functional; conditions: read-out: Survival
HGC-27 [6] = test: Antiproliferative activity against human HGC-27 cells assessed as survival rate at 2 nmol/L measured after 6 hrs by MTT assay relative to control; assay type: functional; conditions: read-out: Survival
HGC-27 [7] = test: Antiproliferative activity against human HGC-27 cells assessed as survival rate at 2 nmol/L measured after 48 hrs by MTT assay relative to control; assay type: functional; conditions: read-out: Survival
Tubulin = test: Inhibition of tubulin (unknown origin) polymerization assessed as decrease in fluorescence intensity in presence of GTP by fluorescence microplate reader; assay type: protein-complex assay, Homo sapiens
[8] = biological target: Tubulin beta (Homo sapiens) (UniProt P68371+Q9H4B7+Q13509+P04350+Q3ZCM7+P07437+Q13885+Q9BVA1+Q9BUF5+A6NNZ2); test: Competitive binding affinity to beta-tubulin colchicine binding site in human MGC-803 cells assessed as inhibition of EBI-beta-tubulin adduct band formation by measuring reduction in adduct band intensity preincubated for 2 hrs followed by EBI addition and measured after 2 hrs by Western blotting analysis; assay type: cell-based; conditions: dose 0.1-1 µmol/L, time 4.0 hrs
Tubulin (Homo sapiens) = Tubulin (Homo sapiens) (UniProt P68371+Q9H4B7+P0DPH7+P68366+Q13509+Q71U36+P04350+Q3ZCM7+P07437+P68363+Q9BQE3+Q6PEY2+Q13885+Q9BVA1+Q9BUF5); test: Disruption of microtubule network in human HGC-27 cells assessed as reduction in filamentous microtubule structure formation at 0.25 to 2.0 nmol/L incubated for 24 hrs by DAPI staining based fluorescence microscopic analysis; assay type: cell-based; conditions: dose 0.25-2 nmol/L
HGC-27 [9] = test: Inhibition of colony formation in human HGC-27 cells incubated for 7 days by crystal violet staining based colony formation assay; assay type: functional, cell-based; conditions: dose 0.1-0.5 nmol/L, time 7.0 day
MGC-803 [10] = test: Induction of cell cycle arrest in human MGC-803 cells assessed as accumulation of cells at G2/M phase incubated for 24 hrs by RNase A/propidium iodide staining based flow cytometric analysis; assay type: functional; conditions: dose 0.25-2 nmol/L
MGC-803 [11] = test: Induction of cell cycle arrest in human MGC-803 cells assessed as accumulation of cells at G2/M phase at 2 nmol/L incubated for 24 hrs by RNase A/propidium iodide staining based flow cytometric analysis relative to control; assay type: functional
MGC-803 [12] = test: Induction of cell cycle arrest in human MGC-803 cells assessed as downregulation of Cdc2 phosphorylation at Tyr15 residue measured after 48 hrs by Western blot analysis; assay type: functional, cell-based; conditions: dose 0.25-2 nmol/L
HGC-27 [13] = test: Induction of cell cycle arrest at G2 phase in human HGC-27 cells assessed as increase in p-Histone H3 level at 0.25 to 2.0 nmol/L measured after 48 hrs by Western blot analysis; assay type: functional, cell-based; conditions: dose 0.25-2 nmol/L
MGC-803 [14] = test: Induction of apoptosis in human MGC-803 cells assessed as cell rupture at 0.25 to 2.0 nmol/L incubated for 48 hrs by bright field microscopic analysis; assay type: functional, cell-based; conditions: dose 0.25-2 nmol/L
HGC-27 [15] = test: Induction of apoptosis in human HGC-27 cells assessed as nuclei shrinkage at 0.25 to 2.0 nmol/L incubated for 48 hrs by DAPI staining based analysis; assay type: functional, cell-based; conditions: dose 0.25-2 nmol/L
HGC-27 [16] = test: Induction of apoptosis in human HGC-27 cells assessed as increase in dead to live cells ratio at 0.25 to 2.0 nmol/L incubated for 48 hrs by Calcein-AM/PI staining based analysis; assay type: functional, cell-based; conditions: dose 0.25-2 nmol/L
HGC-27 [17] = test: Induction of apoptosis in human HGC-27 cells assessed as increase in cleaved PARP expression at 0.25 to 2.0 nmol/L incubated for 48 hrs by Western blotting analysis; assay type: functional, cell-based; conditions: dose 0.25-2 nmol/L
MGC-803 [18] = test: Induction of apoptosis in human MGC-803 cells assessed as increase in cleaved Caspase-9 expression at 0.25 to 2.0 nmol/L incubated for 48 hrs by Western blotting analysis; assay type: functional, cell-based; conditions: dose 0.25-2 nmol/L
MGC-803 [19] = test: Induction of apoptosis in human MGC-803 cells assessed as early apoptotic cells at 0.5 nmol/L incubated for 48 hrs by Annexin V-FITC/propidium iodide staining based flow cytometry analysis (reference value: 0.83 %); assay type: functional
MGC-803 [20] = test: Induction of apoptosis in human MGC-803 cells assessed as late apoptotic cells at 1.5 nmol/L incubated for 48 hrs by Annexin V-FITC/propidium iodide staining based flow cytometry analysis (reference value: 2.22 %); assay type: functional
MGC-803 [21] = test: Induction of apoptosis in human MGC-803 cells assessed as late apoptotic cells at 2.0 nmol/L incubated for 48 hrs by Annexin V-FITC/propidium iodide staining based flow cytometry analysis (reference value: 2.22 %); assay type: functional
HGC-27 [22] = test: Induction of apoptosis in human HGC-27 cells assessed as late apoptotic cells at 2.0 nmol/L incubated for 48 hrs by Annexin V-FITC/propidium iodide staining based flow cytometry analysis (reference value: 3.70 %); assay type: functional
MGC-803 [23] = test: Induction of apoptosis in human MGC-803 cells assessed as total apoptotic rate at 2 nmol/L incubated for 48 hrs by Annexin V-FITC/propidium iodide staining based flow cytometry analysis relative to control; assay type: functional
HGC-27 [24] = test: Induction of apoptosis in human HGC-27 cells assessed as total apoptotic rate at 2 nmol/L incubated for 48 hrs by Annexin V-FITC/propidium iodide staining based flow cytometry analysis relative to control; assay type: functional
MGC-803 [25] = test: Induction of apoptosis in human MGC-803 cells incubated for 48 hrs by Annexin V-FITC/propidium iodide staining based flow cytometry analysis; assay type: functional, cell-based; conditions: dose 0.25-2 nmol/L
HUVEC [26] = test: Anti-angiogenesis activity in HUVEC cells assessed as reduction in cell viability by measuring survival rate at 2 nmol/L incubated for 24 hrs by MTT assay relative to control; assay type: functional; conditions: Homo sapiens, read-out: Survival
HUVEC [27] = test: Anti-angiogenesis activity in HUVEC cells assessed as reduction in cell viability by measuring survival rate at 2 nmol/L incubated for 48 hrs by MTT assay relative to control; assay type: functional; conditions: Homo sapiens, read-out: Survival
MGC-803 [28] = test: Antitumor activity against human MGC-803 cells xenografted in female BALB/c-nu nude mouse assessed as tumor inhibition rate at 5 mg/kg, po administrated every other day for 11 times and measured after 21 days relative to control; assay type: functional; conditions: MGC-803, 504 h, time 21 day, read-out: TGI
MGC-803 [29] = test: Antitumor activity against human MGC-803 cells xenografted in female BALB/c-nu nude mouse assessed as increase in p-Histone H3 level in tumor at 5 mg/kg, po administrated every other day for 11 times and measured after 21 days by immunohistochemical analysis; assay type: functional, organism-based; conditions: time 21.0 day

CN(c1ccc2c(ccn2C)c1)c1nc(N2CCCC2)nc2sccc12
IC50 (MGC-803 [1]): 1.61 nM
IC50 (HGC-27 [2]): 1.82 nM
IC50 (MCF7): 1.85 nM
IC50 (NCI-H1975): 2.96 nM
IC50 at 48 h [3]: 31.1 nM
Activity (MGC-803 [4]): 39%
viability at 0.002 µM (MGC-803 [5]): 35%
viability at 0.002 µM (HGC-27 [6]): 83%
viability at 0.002 µM (HGC-27 [7]): 48%
IC50 (Tubulin): 2510 nM
Activity [8]: Dose-dependent-effect
Activity (Tubulin (Homo sapiens)): Active
inhibition (HGC-27 [9]): Dose-dependent-effect
Activity (MGC-803 [10]): Dose-dependent-effect
Activity (MGC-803 [11]): 28.5%
Activity (MGC-803 [12]): Dose-dependent-effect
Activity (HGC-27 [13]): Active
Activity (MGC-803 [14]): Active
Activity (HGC-27 [15]): Active
Activity (HGC-27 [16]): Active
Activity (HGC-27 [17]): Active
Activity (MGC-803 [18]): Active
Activity (MGC-803 [19]): 3.33%
Activity (MGC-803 [20]): 6.33%
Activity (MGC-803 [21]): 8.06%
Activity (HGC-27 [22]): 5.64%
Activity (MGC-803 [23]): 63%
Activity (HGC-27 [24]): 20%
Activity (MGC-803 [25]): Dose-dependent-effect
viability at 0.002 µM (HUVEC [26]): 59.2%
viability at 0.002 µM (HUVEC [27]): 28.3%
inhibition in vivo at 5 mg/kg (MGC-803 [28]): 45.8%
Activity (MGC-803 [29]): Active
